Patent US8969590B1, “Autotaxin inhibitors” (University of Memphis Research Foundation, priority 2007, dated 2015)

Assays:
ATX (autotaxin) = target: T1, ATX (autotaxin) (Homo sapiens, UniProt Q13822); experiment: ATX inhibition assay: ATX-catalyzed FS-3 hydrolysis, fluorescence, concentrated conditioned medium from MDA MB-435 cells as ATX source; assay type: biochemical; details: for % ATX Activity at 10 μM: 10 μM compound, FS-3 substrate, read at 1 hour, normalized to vehicle control, mean ± S.D. of at least three wells
T1 construct: conditioned serum-free medium (CCM) from MDA MB-435 cells as the source of ATX; endogenous in cells; host or cells: MDA-MB-435 cells (secreted into serum-free conditioned medium, concentrated ~10 fold)
Experimental: The efficacy of these compounds was determined by evaluating fluorescence of autotaxin at specific wavelengths. The test protocol was as follows:
In terms of ATX inhibition analysis determinations, MDA-MB-435 cells were cultured at 37° C. and 5% CO2 in Dulbecco's Modified Eagle Medium (DMEM) (MediaTech, Herndon, Va.) containing 5% fetal bovine serum (Hyclone, Logan, Utah), 100 U/ml penicillin, 100 μg/ml streptomycin (Hyclone, Logan, Utah) and 292 μg/ml L-glutamine (Hyclone, Logan, Utah). Cells were grown to ˜80% confluence at which time the cells were washed twice with sterile phosphate buffered saline prior to the addition of serum free DMEM containing L-glutamine. Conditioned medium was collected after 24-30 hours, supplemented with 20% ethylene glycol and was clarified by centrifugation at 3000×g and 4° C. for 10 min. The media was concentrated ˜10 fold and buffer exchanged into Tris (50 mM, pH 7.4) containing 20% ethylene glycol using an Amicon 8050 cell fitted with a PM30 filter (Millipore, Billerica, Mass.). Aliquots of concentrated conditioned media were stored at 4° C. until needed.
ATX inhibition was assayed using FS-3 (Echelon Biosciences, Inc., Salt Lake City, Utah, USA) as a substrate and ˜10 times concentrated conditioned serum-free medium (CCM) from MDA MB-435 cells as the source of ATX. Assays were performed in 96-well plates with CCM comprising one-third of the total volume and final FS-3 and charcoal-stripped fatty acid free BSA concentrations of 1 and 30 μM in assay buffer (1 mM each CaCl2 and MgCl2, 5 mM KCl, 140 mM NaCl, 50 mM Tris pH 8.0). Fluorescence was read at 5 minute intervals by a Synergy2 system (BioTek, Winooski, Vt.) with excitation and emission wavelengths of 485 and 538 nm, respectively. Results are shown at 1 hour, at which point all fluorescence changes as a function of time were linear. Fluorescence readings were normalized to vehicle control after subtraction of fluorescence in the absence of CCM. Data are shown as the mean±S.D. of at least three wells.

ATX = ATX (Homo sapiens, UniProt Q13822); details: prior art; cited from earlier work

Structure (SMILES)	% ATX Activity at 10 μM (ATX (autotaxin))	other results
CCn1c(SCC(=O)Nc2ccc(C(C)=O)cc2)nc2nc3c(cc2c1=O)CCCC3 [Compound 7921385]	21 ± 6%	–
N[C@@H](Cc1c[nH]cn1)C(=O)O [L-histidine]	–	Concentration required for ATX inhibition efficacy (ATX): millimolar concentrations were required for any efficacy
O=C(O)c1ccc(Oc2ccc(C(=O)c3ccc4c(c3)C(=O)N(c3cccc5ccccc35)C4=O)cc2)cc1 [Compound 5210574]	31 ± 5%	–
O=C(NN1C(=O)c2ccc(C(=O)c3ccc4c(c3)C(=O)N(NC(=O)c3ccncc3)C4=O)cc2C1=O)c1ccncc1 [Compound 5538444]	31 ± 4%	–
O=C(O)c1cc(C(=O)O)cc(N2C(=O)c3ccc(C(=O)c4ccc5c(c4)C(=O)N(c4cc(C(=O)O)cc(C(=O)O)c4)C5=O)cc3C2=O)c1 [Compound 5186522]	49 ± 10%	–
O=C(O)c1ccc2c(c1)C(=O)N(c1cccc(C(=O)Nc3cccc(Cl)c3)c1)C2=O [Compound 5711925]	48 ± 5%	–
O=C(O)c1ccc(NC(=O)c2ccc3c(c2)C(=O)N(c2ccc(/N=N/c4ccccc4)cc2)C3=O)cc1 [Compound 5564676]	–	ATX inhibition (reduction of ATX-catalyzed FS-3 hydrolysis) (ATX (autotaxin); 10 μM concentration): no reduction levels at all
O=C(O)c1ccc(CN2C(=O)c3ccc(C(=O)c4ccc5c(c4)C(=O)N(Cc4ccc(C(=O)O)cc4)C5=O)cc3C2=O)cc1 [Compound 5761473]	46 ± 6%	–
O=C(O)c1cccc(NC(=O)c2ccc3c(c2)C(=O)N(c2ccc(/N=N/c4ccccc4)cc2)C3=O)c1 [Compound 5564949]	45 ± 10%	inhibition at 10 µM (ATX (autotaxin); 10 μM concentration, read-out: ATX inhibition (reduction of ATX-catalyzed FS-3 hydrolysis)): 51%
